Source: paper PMC4303209, “A novel phosphatidylinositol 3-kinase (PI3K) inhibitor directs a potent FOXO-dependent, p53-independent cell cycle arrest phenotype characterized by the differential induction of a subset of FOXO-regulated genes” (Breast Cancer Research : BCR, 2014)

Key:
nuclear FOXO3a = experiment: Immunoblot of nuclear fractions for FOXO3a in MCF-7 or U2OS cells; format: cell-based, human; conditions: nuclear fractions of treated MCF-7 or U2OS cells
Experimental: (§1) Figure 1 Cellular response to ETP-45658. […] Seventy-two hours post treatment, MTT assays were conducted. (B) Dose- and time-dependent analysis of Ser473 phosphorylation of AKT phosphorylation by 100nM ETP-45658 or PI-103 treatment. MCF-7 or U2OS cells were treated with the indicated concentrations (μM) of ETP-45658 (or PI-103) for four hours, then total protein was extracted and immunoblotted. For nuclear FOXO analysis, nuclear protein fractions were collected four hours post ETP-45658 (or PI-103) treatment. Nuclear FOXO3a levels were measure by immunoblotting. Nuclear fractions were confirmed by probing for lamin A/C. (C) FACS profile of MCF-7 or U2OS following 100 nM ETP-45658 treatment (20,000 events scored, N = 5). (D) Heat map for the top 100 differentially expressed genes based on hierarchical clustering using Euclidean distance metric. Red and green indicate genes that induced or repressed respectively by ETP-45658 or PI-103. Black indicates no change (N = 4). […] Numbers indicate number of genes that are exclusive to that particular category.

[1] = test system: FOXO3a promoter recruitment in MCF-7 or MDA-MB231 cells; experiment: Chromatin immunoprecipitation (ChIP) for FOXO3a promoter recruitment; format: cell-based, human; conditions: by six hours post treatment
Experimental: Chromatin immunoprecipitation (ChIP) assays were performed essentially the same as described in [28]. Briefly, cells were fixed with 1% formaldehyde, and then whole-cell lysates were prepared. Protein lysate was subjected to ChIP with the indicated antibodies, followed by DNA purification (Invitrogen, Waltham, MA, USA). ChIP-enriched DNA was analyzed by PCR with the indicated primer sets (Table S1 in Additional file 3) purchased from NZYTech (Lisbon, Portugal). Visualization of bands was achieved using a BioRad Chemidoc XRS+ (BioRad) and quantified using the Image Lab software (BioRad).
Figure 5 Chromatin immunoprecipitation analysis for FOXO3a promoter recruitment. (A) Chromatin immunoprecipitation (ChIP) assays for FOXO3a following ETP-45658 treatment at three or six hours of MCF-7 or MDA-MB231 cells for […], CDKN1B, BCL2L11or FASLG. IgG indicates no specific antibody used and for simplicity, only inputs from our MCF-7 samples are shown. (B and C) Quantification of our ChIP gels normalised to inputs from each respective cell line. Error bars indicate standard deviation, N = 3.

PC3 = experiment: Proliferation assay (MTT, 72 hours); format: cell-based; conditions: Homo sapiens, PC-3
Experimental: (§2) Cells were seeded in 96-well microtitre plates. Compounds (in DMSO) were added to each well (at a final concentration of 10 μM). The medium was removed from the cells and replaced with 0.2 ml of medium containing either compound for 72 hours and then processed for MTT assay (Promega Corp, Madison, WI, USA) N = 6.
as §1

HCT-116 = experiment: Proliferation assay (MTT, 72 hours); format: cell-based; conditions: Homo sapiens
Experimental: as §2, §1

NCIH460 = experiment: Proliferation assay (MTT, 72 hours); format: cell-based; conditions: Homo sapiens, NCI-H460
Experimental: as §2, §1

T47D = experiment: Proliferation assay (MTT, 72 hours); format: cell-based; conditions: Homo sapiens
Experimental: as §2, §1

MCF-7 = experiment: Proliferation assay (MTT, 72 hours); format: cell-based; conditions: Homo sapiens, MCF7
Experimental: as §2, §1

MV4.11 = experiment: Proliferation assay (MTT, 72 hours); format: cell-based; conditions: Homo sapiens
Experimental: as §2, §1

[2] = test system: PC3, MCF7, MV4.11, T47D, HCT-116 and NCIH46 cells; experiment: cells; format: cell-based; conditions: Homo sapiens; range over all tested cell lines; MTT 72 hours; read-out: EC50 value for the inhibition of proliferation, inhibitory range
Description: We determined the EC50 value for the inhibition of proliferation in each of the following cell lines, PC3, MCF7, MV4.11, T47D, HCT-116 and NCIH46 cells.

[3] = set-up: method as in PMID 17575152; conditions: cited from earlier work

| SMILES | nuclear FOXO3a level (nuclear FOXO3a) | FOXO3a promoter recruitment (CCNG2, CDKN1B, BCL2L11, FASLG) [1] | GI50 (PC3) | GI50 (HCT-116) | GI50 (NCIH460) | GI50 (T47D) | GI50 (MCF-7) | GI50 (MV4.11) | EC50 [2] | aqueous solubility [3] |
| --- | --- | --- | --- | --- | --- | --- | --- | --- | --- | --- |
| Cn1ncc2c(N3CCOCC3)nc(-c3cccc(O)c3)nc21 [ETP-45658] | significant accumulation | statistically significant FOXO3a promoter recruitment | – | – | – | – | – | – | – | – |
| Oc1cccc(-c2nc(N3CCOCC3)c3oc4ncccc4c3n2)c1 [PI-103] | – | – | 50 nM | 1670 nM | 1310 nM | 340 nM | 500 nM | 50 nM | 49 to 1760 nM | limited aqueous solubility |
